Results as given in ChEMBL document CHEMBL3132778, “Structureactivity relationships of tetrahydrocarbazole derivatives as antifungal lead compounds” (Medchemcomm, 2013).

Tested on: Cryptococcus neoformans
Experiment: Antifungal activity against Cryptococcus neoformans after 72 hrs by serial dilution method
Type: functional
Settings: not given

MIC80, 32 µg/mL:
O=C(OC1CCNCC1)c1ccc2c(c1)c1c(n2CCCNCc2ccccc2)CCCC1

MIC80, 16 µg/mL:
CN1CCC(OC(=O)c2ccc3c(c2)c2c(n3CCCNCc3ccccc3)CCCC2)CC1
O=C(Nc1ccc(Br)cc1)c1ccc2c(c1)c1c(n2CCCNCc2ccccc2)CCCC1

MIC80, 64 µg/mL:
O=C(Nc1ccccc1)c1ccc2c(c1)c1c(n2CCCNCc2ccccc2)CCCC1
O=C(NCc1ccccc1)c1ccc2c(c1)c1c(n2CCCNCc2ccccc2)CCCC1
O=C(c1ccc2c(c1)c1c(n2CCCNCc2ccccc2)CCCC1)c1ccccn1

MIC80, > 64 µg/mL:
Cc1ccc2c(c1)c1c(n2CCCNCc2ccc(Cl)cc2Cl)CCCC1
CCOC(=O)c1ccc2c(c1)c1c(n2CCCNCc2ccccc2)CCCC1
OCc1ccc2c(c1)c1c(n2CCCNCc2ccccc2)CCCC1
O=C(OCc1ccc2c(c1)c1c(n2CCCNCc2ccccc2)CCCC1)c1ccccc1
c1ccc(CNCCCn2c3c(c4cc(CNc5ccccc5)ccc42)CCCC3)cc1
O=C(Oc1ccccc1)c1ccc2c(c1)c1c(n2CCCNCc2ccccc2)CCCC1
O=C(OC1CCCCC1)c1ccc2c(c1)c1c(n2CCCNCc2ccccc2)CCCC1
Cc1ccc(C(=O)c2ccc3c(c2)c2c(n3CCCNCc3ccccc3)CCCC2)nc1
O=C(c1ccc2c(c1)c1c(n2CCCNCc2ccccc2)CCCC1)c1nccs1
Cc1c(C(=O)c2ccccn2)oc2cccc(OCCCNCc3cccnc3)c12

Tested on: Aspergillus fumigatus
Experiment: Antifungal activity against Aspergillus fumigatus after 7 days by serial dilution method
Type: functional
Settings: 168 h

MIC80, > 64 µg/mL:
Cc1ccc2c(c1)c1c(n2CCCNCc2ccc(Cl)cc2Cl)CCCC1
CCOC(=O)c1ccc2c(c1)c1c(n2CCCNCc2ccccc2)CCCC1
OCc1ccc2c(c1)c1c(n2CCCNCc2ccccc2)CCCC1
O=C(OCc1ccc2c(c1)c1c(n2CCCNCc2ccccc2)CCCC1)c1ccccc1
c1ccc(CNCCCn2c3c(c4cc(CNc5ccccc5)ccc42)CCCC3)cc1
O=C(OC1CCNCC1)c1ccc2c(c1)c1c(n2CCCNCc2ccccc2)CCCC1
O=C(Nc1ccccc1)c1ccc2c(c1)c1c(n2CCCNCc2ccccc2)CCCC1
O=C(NCc1ccccc1)c1ccc2c(c1)c1c(n2CCCNCc2ccccc2)CCCC1
O=C(OC1CCCCC1)c1ccc2c(c1)c1c(n2CCCNCc2ccccc2)CCCC1
O=C(c1ccc2c(c1)c1c(n2CCCNCc2ccccc2)CCCC1)c1ccccn1
Cc1ccc(C(=O)c2ccc3c(c2)c2c(n3CCCNCc3ccccc3)CCCC2)nc1
O=C(c1ccc2c(c1)c1c(n2CCCNCc2ccccc2)CCCC1)c1nccs1
Cc1c(C(=O)c2ccccn2)oc2cccc(OCCCNCc3cccnc3)c12

MIC80, 64 µg/mL:
O=C(Oc1ccccc1)c1ccc2c(c1)c1c(n2CCCNCc2ccccc2)CCCC1
O=C(Nc1ccc(Br)cc1)c1ccc2c(c1)c1c(n2CCCNCc2ccccc2)CCCC1

MIC80, 32 µg/mL:
CN1CCC(OC(=O)c2ccc3c(c2)c2c(n3CCCNCc3ccccc3)CCCC2)CC1

Tested on: Trichophyton rubrum
Experiment: Antifungal activity against Trichophyton rubrum by serial dilution method
Type: functional
Settings: not given

MIC80, > 64 µg/mL:
Cc1ccc2c(c1)c1c(n2CCCNCc2ccc(Cl)cc2Cl)CCCC1

MIC80, 64 µg/mL:
Cc1c(C(=O)c2ccccn2)oc2cccc(OCCCNCc3cccnc3)c12

Tested on: Candida tropicalis
Experiment: Antifungal activity against Candida tropicalis after 24 hrs by serial dilution method
Type: functional
Settings: not given

MIC80, 8 µg/mL:
O=C(OC1CCNCC1)c1ccc2c(c1)c1c(n2CCCNCc2ccccc2)CCCC1
Cc1c(C(=O)c2ccccn2)oc2cccc(OCCCNCc3cccnc3)c12

MIC80, 32 µg/mL:
CN1CCC(OC(=O)c2ccc3c(c2)c2c(n3CCCNCc3ccccc3)CCCC2)CC1

MIC80, > 64 µg/mL:
Cc1ccc2c(c1)c1c(n2CCCNCc2ccc(Cl)cc2Cl)CCCC1
CCOC(=O)c1ccc2c(c1)c1c(n2CCCNCc2ccccc2)CCCC1
OCc1ccc2c(c1)c1c(n2CCCNCc2ccccc2)CCCC1
O=C(OCc1ccc2c(c1)c1c(n2CCCNCc2ccccc2)CCCC1)c1ccccc1
c1ccc(CNCCCn2c3c(c4cc(CNc5ccccc5)ccc42)CCCC3)cc1
O=C(Oc1ccccc1)c1ccc2c(c1)c1c(n2CCCNCc2ccccc2)CCCC1
O=C(Nc1ccccc1)c1ccc2c(c1)c1c(n2CCCNCc2ccccc2)CCCC1
O=C(Nc1ccc(Br)cc1)c1ccc2c(c1)c1c(n2CCCNCc2ccccc2)CCCC1
O=C(NCc1ccccc1)c1ccc2c(c1)c1c(n2CCCNCc2ccccc2)CCCC1
O=C(OC1CCCCC1)c1ccc2c(c1)c1c(n2CCCNCc2ccccc2)CCCC1
O=C(c1ccc2c(c1)c1c(n2CCCNCc2ccccc2)CCCC1)c1ccccn1
Cc1ccc(C(=O)c2ccc3c(c2)c2c(n3CCCNCc3ccccc3)CCCC2)nc1
O=C(c1ccc2c(c1)c1c(n2CCCNCc2ccccc2)CCCC1)c1nccs1

Tested on: Candida parapsilosis
Experiment: Antifungal activity against Candida parapsilosis after 24 hrs by serial dilution method
Type: functional
Settings: Lodderomyces parapsilosis

MIC80, > 64 µg/mL:
Cc1ccc2c(c1)c1c(n2CCCNCc2ccc(Cl)cc2Cl)CCCC1
CCOC(=O)c1ccc2c(c1)c1c(n2CCCNCc2ccccc2)CCCC1
OCc1ccc2c(c1)c1c(n2CCCNCc2ccccc2)CCCC1
O=C(OCc1ccc2c(c1)c1c(n2CCCNCc2ccccc2)CCCC1)c1ccccc1
c1ccc(CNCCCn2c3c(c4cc(CNc5ccccc5)ccc42)CCCC3)cc1
O=C(Oc1ccccc1)c1ccc2c(c1)c1c(n2CCCNCc2ccccc2)CCCC1
O=C(Nc1ccccc1)c1ccc2c(c1)c1c(n2CCCNCc2ccccc2)CCCC1
O=C(Nc1ccc(Br)cc1)c1ccc2c(c1)c1c(n2CCCNCc2ccccc2)CCCC1
O=C(NCc1ccccc1)c1ccc2c(c1)c1c(n2CCCNCc2ccccc2)CCCC1
O=C(OC1CCCCC1)c1ccc2c(c1)c1c(n2CCCNCc2ccccc2)CCCC1
O=C(c1ccc2c(c1)c1c(n2CCCNCc2ccccc2)CCCC1)c1ccccn1
Cc1ccc(C(=O)c2ccc3c(c2)c2c(n3CCCNCc3ccccc3)CCCC2)nc1
O=C(c1ccc2c(c1)c1c(n2CCCNCc2ccccc2)CCCC1)c1nccs1

MIC80, 64 µg/mL:
CN1CCC(OC(=O)c2ccc3c(c2)c2c(n3CCCNCc3ccccc3)CCCC2)CC1

MIC80, 4 µg/mL:
Cc1c(C(=O)c2ccccn2)oc2cccc(OCCCNCc3cccnc3)c12

MIC80, 32 µg/mL:
O=C(OC1CCNCC1)c1ccc2c(c1)c1c(n2CCCNCc2ccccc2)CCCC1

Tested on: Candida albicans
Experiment: Antifungal activity against Candida albicans after 24 hrs by serial dilution method
Type: functional
Settings: not given

MIC80, 64 µg/mL:
O=C(Oc1ccccc1)c1ccc2c(c1)c1c(n2CCCNCc2ccccc2)CCCC1
O=C(OC1CCCCC1)c1ccc2c(c1)c1c(n2CCCNCc2ccccc2)CCCC1
O=C(c1ccc2c(c1)c1c(n2CCCNCc2ccccc2)CCCC1)c1ccccn1
Cc1ccc(C(=O)c2ccc3c(c2)c2c(n3CCCNCc3ccccc3)CCCC2)nc1

MIC80, 32 µg/mL:
c1ccc(CNCCCn2c3c(c4cc(CNc5ccccc5)ccc42)CCCC3)cc1
O=C(OC1CCNCC1)c1ccc2c(c1)c1c(n2CCCNCc2ccccc2)CCCC1
CN1CCC(OC(=O)c2ccc3c(c2)c2c(n3CCCNCc3ccccc3)CCCC2)CC1
O=C(Nc1ccccc1)c1ccc2c(c1)c1c(n2CCCNCc2ccccc2)CCCC1
O=C(Nc1ccc(Br)cc1)c1ccc2c(c1)c1c(n2CCCNCc2ccccc2)CCCC1
O=C(c1ccc2c(c1)c1c(n2CCCNCc2ccccc2)CCCC1)c1nccs1

MIC80, 4 µg/mL:
Cc1c(C(=O)c2ccccn2)oc2cccc(OCCCNCc3cccnc3)c12

MIC80, > 64 µg/mL:
Cc1ccc2c(c1)c1c(n2CCCNCc2ccc(Cl)cc2Cl)CCCC1
CCOC(=O)c1ccc2c(c1)c1c(n2CCCNCc2ccccc2)CCCC1
OCc1ccc2c(c1)c1c(n2CCCNCc2ccccc2)CCCC1
O=C(OCc1ccc2c(c1)c1c(n2CCCNCc2ccccc2)CCCC1)c1ccccc1
O=C(NCc1ccccc1)c1ccc2c(c1)c1c(n2CCCNCc2ccccc2)CCCC1

Tested on: Nannizzia gypsea
Experiment: Antifungal activity against Microsporum gypseum by serial dilution method
Type: functional
Settings: not given

MIC80, > 64 µg/mL:
Cc1c(C(=O)c2ccccn2)oc2cccc(OCCCNCc3cccnc3)c12

Tested on: Kluyveromyces marxianus
Experiment: Antifungal activity against Candida kefyr after 24 hrs by serial dilution method
Type: functional
Settings: not given

MIC80, > 64 µg/mL:
Cc1ccc2c(c1)c1c(n2CCCNCc2ccc(Cl)cc2Cl)CCCC1
CCOC(=O)c1ccc2c(c1)c1c(n2CCCNCc2ccccc2)CCCC1
OCc1ccc2c(c1)c1c(n2CCCNCc2ccccc2)CCCC1
O=C(OCc1ccc2c(c1)c1c(n2CCCNCc2ccccc2)CCCC1)c1ccccc1
c1ccc(CNCCCn2c3c(c4cc(CNc5ccccc5)ccc42)CCCC3)cc1
O=C(Oc1ccccc1)c1ccc2c(c1)c1c(n2CCCNCc2ccccc2)CCCC1
O=C(Nc1ccccc1)c1ccc2c(c1)c1c(n2CCCNCc2ccccc2)CCCC1
O=C(Nc1ccc(Br)cc1)c1ccc2c(c1)c1c(n2CCCNCc2ccccc2)CCCC1
O=C(NCc1ccccc1)c1ccc2c(c1)c1c(n2CCCNCc2ccccc2)CCCC1
O=C(OC1CCCCC1)c1ccc2c(c1)c1c(n2CCCNCc2ccccc2)CCCC1
O=C(c1ccc2c(c1)c1c(n2CCCNCc2ccccc2)CCCC1)c1ccccn1
Cc1ccc(C(=O)c2ccc3c(c2)c2c(n3CCCNCc3ccccc3)CCCC2)nc1
O=C(c1ccc2c(c1)c1c(n2CCCNCc2ccccc2)CCCC1)c1nccs1

MIC80, 4 µg/mL:
Cc1c(C(=O)c2ccccn2)oc2cccc(OCCCNCc3cccnc3)c12

MIC80, 64 µg/mL:
O=C(OC1CCNCC1)c1ccc2c(c1)c1c(n2CCCNCc2ccccc2)CCCC1

MIC80, 32 µg/mL:
CN1CCC(OC(=O)c2ccc3c(c2)c2c(n3CCCNCc3ccccc3)CCCC2)CC1
